According to patent US10500232B2, “Small molecule cellular reprogramming to generate neuronal cells” (The J. David Gladstone Institutes, a testamentary trust …, priority 2013, dated 2019):
Like-named read-outs stand apart in the source and are kept apart here.

How the values were obtained:
mGlu4 = mGlu4 (Homo sapiens, UniProt Q14833); conditions: cited from earlier work
[1] = tested on: Tau-EGFP mouse embryonic fibroblasts transduced with Ascl1/Myt1l; assay: High-throughput compound screening for Tau-EGFP expression and neuronal morphology; type: cell-based; conditions: individual compound plus doxycycline 7 days, analysed day 14; hits confirmed dose-dependently in larger well format
Protocol: Infected Tau-EGFP MEFs in 150-mm dishes were dissociated by trypsinization and plated to 384-well plates with 4×10^3 cells per well in 50 μl of N2B27 medium plus 2.0 μg ml^−1 doxycycline by using Multi-drop (Thermo Fisher). Fifty nanoliters of compounds from a collection of known drugs (˜3,000) were added to each well of infected cells by using BioMek (BD). After 3 days of compound treatment, […] N2B27 media were added to each well to keep the medium volume at 55-60 μl. The total period of compound treatment is 7 days. After that, medium was replaced with neuronal maturation medium for another 7 days. The cells were then fixed for immunostaining on Day 14. The high-throughput imaging was performed by using InCell 2000. Finally, the screening result was analyzed by InCell Workstation 2000.
To conduct the chemical screening, Tau-EGFP mouse embryonic fibroblasts were used that were transduced with an Ascl1/Myt1l coding region that was under control of tet operator. These cells were plated at 4,000 cells/well in 384-well plates containing chemically defined N2B27 media. After overnight incubation, the cells were treated for seven days with doxycycline to induce Ascl1/Myt1l expression and also contacted with individual compounds selected from a drug collection containing over 3000 compounds. The media was then replaced with compound-free standard neuronal media. Cells were fixed at day 14 then analyzed for Tau-EGFP expression and neuronal morphology by high content imaging (FIG. 4A and FIG. 3).

mGlu receptors = conditions: cited from earlier work
[2] = tested on: HDAC activity in HeLa extracts; conditions: read-out: IC50 for inhibition of HDAC activity; cited from earlier work
PDE4 = conditions: read-out: IC50 against PDE4; cited from earlier work
[3] = molecular target: histone acetyltransferase p300 (Homo sapiens, UniProt Q09472); conditions: simplified analog of CTPB; cited from earlier work
Chain of histone acetyltransferase p300 (Q09472 whole entry, species assumed): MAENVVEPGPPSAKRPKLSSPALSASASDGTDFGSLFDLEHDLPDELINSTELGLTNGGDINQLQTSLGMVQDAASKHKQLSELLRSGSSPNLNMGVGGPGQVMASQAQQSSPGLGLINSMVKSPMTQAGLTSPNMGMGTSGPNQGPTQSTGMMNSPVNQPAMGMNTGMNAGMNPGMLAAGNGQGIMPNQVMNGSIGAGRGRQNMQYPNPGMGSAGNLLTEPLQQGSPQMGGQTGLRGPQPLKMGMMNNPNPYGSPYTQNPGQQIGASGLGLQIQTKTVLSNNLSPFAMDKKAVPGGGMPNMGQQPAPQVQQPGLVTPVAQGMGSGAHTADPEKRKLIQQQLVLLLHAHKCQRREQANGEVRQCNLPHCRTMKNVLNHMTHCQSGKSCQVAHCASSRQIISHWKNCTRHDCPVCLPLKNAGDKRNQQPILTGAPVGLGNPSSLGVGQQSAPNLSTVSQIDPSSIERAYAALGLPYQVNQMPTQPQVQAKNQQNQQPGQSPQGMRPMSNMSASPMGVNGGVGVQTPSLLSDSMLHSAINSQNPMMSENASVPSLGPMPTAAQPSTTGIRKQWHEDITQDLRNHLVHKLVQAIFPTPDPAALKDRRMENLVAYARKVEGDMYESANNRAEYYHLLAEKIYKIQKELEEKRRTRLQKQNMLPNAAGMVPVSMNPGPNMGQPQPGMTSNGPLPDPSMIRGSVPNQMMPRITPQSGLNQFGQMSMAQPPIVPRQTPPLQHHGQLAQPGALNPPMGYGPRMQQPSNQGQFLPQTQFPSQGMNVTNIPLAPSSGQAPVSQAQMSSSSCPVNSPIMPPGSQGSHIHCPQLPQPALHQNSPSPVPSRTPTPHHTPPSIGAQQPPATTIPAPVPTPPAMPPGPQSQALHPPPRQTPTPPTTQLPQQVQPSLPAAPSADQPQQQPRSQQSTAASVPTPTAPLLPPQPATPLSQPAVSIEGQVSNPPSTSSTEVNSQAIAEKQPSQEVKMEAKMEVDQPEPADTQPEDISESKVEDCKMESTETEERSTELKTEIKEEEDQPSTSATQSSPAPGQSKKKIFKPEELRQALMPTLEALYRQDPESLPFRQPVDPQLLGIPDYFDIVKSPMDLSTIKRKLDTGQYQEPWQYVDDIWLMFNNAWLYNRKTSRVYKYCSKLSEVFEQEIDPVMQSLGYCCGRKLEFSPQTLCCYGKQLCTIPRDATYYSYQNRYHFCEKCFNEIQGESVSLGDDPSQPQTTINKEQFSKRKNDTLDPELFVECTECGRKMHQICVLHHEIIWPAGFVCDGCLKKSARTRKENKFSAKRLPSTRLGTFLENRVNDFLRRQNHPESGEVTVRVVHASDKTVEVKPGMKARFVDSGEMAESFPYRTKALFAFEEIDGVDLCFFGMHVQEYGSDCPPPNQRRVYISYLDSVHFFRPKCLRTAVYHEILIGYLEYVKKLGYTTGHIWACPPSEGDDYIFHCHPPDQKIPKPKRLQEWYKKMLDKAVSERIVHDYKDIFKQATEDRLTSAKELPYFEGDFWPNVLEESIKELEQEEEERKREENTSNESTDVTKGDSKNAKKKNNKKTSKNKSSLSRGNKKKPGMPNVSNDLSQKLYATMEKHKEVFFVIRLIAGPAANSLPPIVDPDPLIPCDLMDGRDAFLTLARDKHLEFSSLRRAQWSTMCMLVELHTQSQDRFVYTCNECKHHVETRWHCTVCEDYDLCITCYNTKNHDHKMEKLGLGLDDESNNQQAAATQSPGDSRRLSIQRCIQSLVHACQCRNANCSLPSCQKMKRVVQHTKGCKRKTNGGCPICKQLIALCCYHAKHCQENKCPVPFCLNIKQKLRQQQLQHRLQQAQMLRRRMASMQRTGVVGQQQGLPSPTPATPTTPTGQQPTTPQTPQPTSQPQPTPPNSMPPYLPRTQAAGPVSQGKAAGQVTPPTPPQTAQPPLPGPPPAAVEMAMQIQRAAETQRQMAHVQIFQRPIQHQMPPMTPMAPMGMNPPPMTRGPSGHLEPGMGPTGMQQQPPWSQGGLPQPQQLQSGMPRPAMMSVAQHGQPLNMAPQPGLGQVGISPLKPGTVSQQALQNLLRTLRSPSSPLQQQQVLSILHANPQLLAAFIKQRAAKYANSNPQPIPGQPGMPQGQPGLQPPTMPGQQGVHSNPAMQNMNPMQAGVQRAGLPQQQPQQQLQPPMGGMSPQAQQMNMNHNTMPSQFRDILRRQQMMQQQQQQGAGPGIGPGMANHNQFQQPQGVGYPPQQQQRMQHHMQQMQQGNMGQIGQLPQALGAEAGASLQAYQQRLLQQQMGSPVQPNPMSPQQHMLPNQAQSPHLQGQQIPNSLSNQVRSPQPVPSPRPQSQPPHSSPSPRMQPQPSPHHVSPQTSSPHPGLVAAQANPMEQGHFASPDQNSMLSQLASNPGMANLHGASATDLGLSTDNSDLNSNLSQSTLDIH

[4] = tested on: histone deacetylases (HDACs); conditions: read-out: IC50 (histone deacetylase), cited from earlier work
SAPK2/p38 = SAPK2/p38 (Homo sapiens, UniProt Q16539); conditions: inhibitor of CK1 and ALK5; cited from earlier work
Chain of SAPK2/p38 (Q16539 whole entry): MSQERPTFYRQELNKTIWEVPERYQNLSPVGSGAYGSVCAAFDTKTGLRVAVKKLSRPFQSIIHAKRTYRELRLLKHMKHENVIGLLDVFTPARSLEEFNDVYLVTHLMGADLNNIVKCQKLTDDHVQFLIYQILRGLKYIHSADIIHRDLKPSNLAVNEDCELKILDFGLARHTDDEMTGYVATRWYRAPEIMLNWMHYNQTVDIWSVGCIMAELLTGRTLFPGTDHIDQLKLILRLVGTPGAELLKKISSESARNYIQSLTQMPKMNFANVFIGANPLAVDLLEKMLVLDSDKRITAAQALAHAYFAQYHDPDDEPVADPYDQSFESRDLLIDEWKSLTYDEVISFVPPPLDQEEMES

adenylate cyclase 1 = adenylate cyclase 1 (Homo sapiens, UniProt Q08828); conditions: cited from earlier work
Chain of adenylate cyclase 1 (Q08828 whole entry): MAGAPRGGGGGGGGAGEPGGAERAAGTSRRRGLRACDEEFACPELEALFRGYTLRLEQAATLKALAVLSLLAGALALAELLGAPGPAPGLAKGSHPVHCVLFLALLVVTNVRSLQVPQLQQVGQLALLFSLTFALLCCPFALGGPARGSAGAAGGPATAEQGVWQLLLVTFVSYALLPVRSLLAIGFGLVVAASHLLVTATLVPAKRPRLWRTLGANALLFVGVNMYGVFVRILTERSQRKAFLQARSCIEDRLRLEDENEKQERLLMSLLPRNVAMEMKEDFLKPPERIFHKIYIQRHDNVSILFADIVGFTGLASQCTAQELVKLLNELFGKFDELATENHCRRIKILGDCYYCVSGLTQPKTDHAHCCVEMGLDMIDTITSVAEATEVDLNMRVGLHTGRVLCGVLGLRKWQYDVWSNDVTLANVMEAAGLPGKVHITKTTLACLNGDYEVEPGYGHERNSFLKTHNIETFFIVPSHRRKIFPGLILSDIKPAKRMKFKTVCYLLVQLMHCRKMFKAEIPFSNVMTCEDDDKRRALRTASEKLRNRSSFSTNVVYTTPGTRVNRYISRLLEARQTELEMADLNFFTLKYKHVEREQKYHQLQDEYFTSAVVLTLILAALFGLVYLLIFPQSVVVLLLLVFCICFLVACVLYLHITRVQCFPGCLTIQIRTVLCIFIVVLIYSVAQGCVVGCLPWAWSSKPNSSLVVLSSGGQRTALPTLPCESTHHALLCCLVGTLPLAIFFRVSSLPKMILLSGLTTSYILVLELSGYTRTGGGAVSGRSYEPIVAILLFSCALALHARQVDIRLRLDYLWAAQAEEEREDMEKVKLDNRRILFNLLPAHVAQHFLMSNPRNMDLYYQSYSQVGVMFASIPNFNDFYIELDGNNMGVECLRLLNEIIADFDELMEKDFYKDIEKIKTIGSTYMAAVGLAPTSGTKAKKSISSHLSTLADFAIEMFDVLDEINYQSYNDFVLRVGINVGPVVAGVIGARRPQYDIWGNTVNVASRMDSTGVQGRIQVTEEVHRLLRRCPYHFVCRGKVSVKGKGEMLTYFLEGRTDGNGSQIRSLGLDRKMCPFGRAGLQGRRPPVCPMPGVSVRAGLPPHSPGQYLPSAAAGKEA

[5] = molecular target: rat Group II mGlu receptor; conditions: read-out: IC50 against rat Group II mGlu receptor; cited from earlier work
various mGlu receptors = conditions: Ki depends on which receptor is bound; cited from earlier work
mGlu(2) receptors = conditions: rodent and human; cited from earlier work
mGlu(3) receptors = conditions: rodent and human; cited from earlier work
[6] = tested on: STRC2-Ascl1/Myt1l neuronal cells from MEFs; assay: Patch clamp electrophysiology of STRC2-Ascl1/Myt1l induced neuronal cells; type: cell-based, mouse
[7] = tested on: RFP-positive miR124-RFP/Brn2 human fibroblast-derived cells; assay: Patch clamp electrophysiology of STRC2-treated miR124-RFP/Brn2 cells; type: cell-based

Chain of mGlu4 (Q14833 33-912): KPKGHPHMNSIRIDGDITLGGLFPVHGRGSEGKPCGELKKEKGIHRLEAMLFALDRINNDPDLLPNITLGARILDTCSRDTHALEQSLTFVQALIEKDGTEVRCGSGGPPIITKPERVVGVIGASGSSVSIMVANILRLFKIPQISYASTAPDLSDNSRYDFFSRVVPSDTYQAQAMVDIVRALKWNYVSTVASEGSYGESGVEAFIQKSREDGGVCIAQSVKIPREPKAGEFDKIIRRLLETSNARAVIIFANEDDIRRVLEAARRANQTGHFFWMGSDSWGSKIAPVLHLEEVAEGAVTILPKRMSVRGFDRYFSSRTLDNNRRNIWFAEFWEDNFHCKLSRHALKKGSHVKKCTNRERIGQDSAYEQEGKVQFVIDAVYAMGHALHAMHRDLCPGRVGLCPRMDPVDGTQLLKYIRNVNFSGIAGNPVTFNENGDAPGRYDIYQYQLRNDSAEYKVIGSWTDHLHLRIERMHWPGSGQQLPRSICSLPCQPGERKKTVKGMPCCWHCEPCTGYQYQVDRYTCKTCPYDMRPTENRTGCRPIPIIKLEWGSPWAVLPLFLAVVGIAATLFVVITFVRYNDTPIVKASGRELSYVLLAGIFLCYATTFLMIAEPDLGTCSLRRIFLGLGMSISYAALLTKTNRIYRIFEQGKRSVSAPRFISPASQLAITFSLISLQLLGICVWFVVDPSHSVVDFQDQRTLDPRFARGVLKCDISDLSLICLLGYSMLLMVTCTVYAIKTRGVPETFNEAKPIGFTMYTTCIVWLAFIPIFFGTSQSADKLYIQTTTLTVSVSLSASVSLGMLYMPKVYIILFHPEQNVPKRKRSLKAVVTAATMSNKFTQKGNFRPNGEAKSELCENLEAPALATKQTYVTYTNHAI

## O=C(Nc1cc(Cl)cc(Cl)c1)[C@H]1CCCC[C@H]1C(=O)O (relative stereo) [VU0155041, cis-2-[[(3,5-dichlorophenyl)amino]carbonyl]cyclohexanecarboxylic acid]
mGlu4
  EC50: 1 µM

## N[C@@]1(C(=O)O)CC[C@@H](C(=O)O)C1 [ACPD, (1S,3R)-1-aminocyclopentane-1,3-dicarboxylic acid]
[1]
  induction of Tau-EGFP expression and neuronal morphology (screen hit): induce Tau-EGFP expression and a neuronal morphology
mGlu receptors
  EC50: 9 to 40 µM

## Nc1ccccc1NC(=O)CCCCCCC(=O)Nc1ccccc1 [BML-210, N1-(2-aminophenyl)-N8-phenyl-octanediamide]
[2]
  IC50: ~80 µM

## O=C(O)c1ccc(-c2ccc3cc(O)c(C45CC6CC(CC(C6)C4)C5)cc3c2)cc1 [CD1530, 4-(6-hydroxy-7-tricyclo[3.3.1.13,7]dec-1-yl-2-naphthalenyl)benzoic acid]
[1]
  induction of Tau-EGFP expression and neuronal morphology (screen hit): induce Tau-EGFP expression and a neuronal morphology

## COc1ccc([C@H](Cc2ccncc2)c2ccccc2)cc1OC1CCCC1 [CDP-840, 4-[(2R)-2-(3-cyclopentyloxy-4-methoxyphenyl)-2-phenylethyl]pyridine]
PDE4
  IC50: ~10 µM

## Cc1c[nH]c(-c2cnc(NCCNc3ccc(C#N)cn3)nc2-c2ccc(Cl)cc2Cl)n1 [CHIR99021, 6-(2-(4-(2,4-dichlorophenyl)-5-(4-methyl-1H-imidazol-2-yl)pyrimidin-2-ylamino)ethylamino)nicotinonitrile]
[1]
  induction of Tau-EGFP expression and neuronal morphology (screen hit): induce Tau-EGFP expression and a neuronal morphology

## CCOc1ccccc1C(=O)Nc1ccc(Cl)c(C(F)(F)F)c1 [CTB, N-(4-chloro-3-trifluoromethyl-phenyl)-2-ethoxybenzamide]
[3]
  activity as p300 activator relative to CTPB: comparable or higher activity

## CCCCCCCCCCCCCCCc1cccc(OCC)c1C(=O)Nc1ccc(Cl)c(C(F)(F)F)c1 [CTPB, N-(4-chloro-3-trifluoromethyl-phenyl)-2-ethoxy-6-pentadecyl-benzamide]
[1]
  induction of Tau-EGFP expression and neuronal morphology (screen hit): induce Tau-EGFP expression and a neuronal morphology

## CC1(C)NC(=O)C(CCCCCC(=O)[C@H]2CO2)NC(=O)C2CCCN2C(=O)[C@@H](Cc2ccccc2)NC1=O (stereo partly drawn) [Chlamydocin, (3R)-3-benzyl-6,6-dimethyl-9-[6-[(2R)-oxiran-2-yl]-6-oxohexyl]-1,4,7,10-tetrazabicyclo[10.3.0]pentadecane-2,5,8,11-tetrone]
[4]; isoform not stated
  IC50: ~0.00015 µM

## Cc1cc2c3c(c1)C(c1ccccc1)=N[C@@H](NC(=O)c1ccncc1)C(=O)N3CC2 [Cl-1018, N-[(3R)-9-methyl-4-oxo-1-phenyl-3,4,6,7-tetrahydro[1,4]diazepino[6,7,1-hi]indol-3-yl]pyridine-4-carboxamide]
PDE4
  IC50: ~3 µM

## NC(=O)c1ccc(-c2nc(-c3ccc4c(c3)OCCO4)c(-c3ccccn3)[nH]2)cc1 [D 4476, 4-[4-(2,3-Dihydro-1,4-benzodioxin-6-yl)-5-(2-pyridinyl)-IH-imidazol-2-yl]benzamide]
SAPK2/p38
  selectivity over SAPK2/p38: greater than 20 fold

## COc1ccc(C(=O)Nc2cc(Cl)cnc2Cl)c2cccnc12 [D-4418, N-(2,5-dichloropyridin-3-yl)-8-methoxyquinoline-5-carboxamide]
PDE4
  IC50: ~0.17 µM

## C=C[C@@]1(C)CC(=O)[C@]2(O)[C@@]3(C)[C@@H](O)CCC(C)(C)[C@@H]3[C@H](O)[C@H](OC(C)=O)[C@@]2(C)O1 [Forskolin]
Adenylate cyclase 1
  IC50: 0.04 to 0.15 µM

## CCOC(=O)c1ccc(N(C)C2CSC(c3ccccc3)=N2)cc1 (stereo not shown) [KHS2, ethyl 4-(methyl(2-phenyl-4,5-dihydrothiazol-4-yl)amino)benzoate]
[1]
  induction of Tau-EGFP expression and neuronal morphology (screen hit): induce Tau-EGFP expression and a neuronal morphology

## N[C@@]1(C(=O)O)CC[C@H]2[C@H](C(=O)O)[C@H]21 [LY354740, 1S,2S,5R,6S-2-aminobicyclo[3.1.0]hexane-2,6-dicarboxylate]
[5]
  IC50: ~0.254 µM

## N[C@@]1(C(=O)O)COC2C1[C@H]2C(=O)O (stereo partly drawn) [LY379268, (4R,6R)-4-amino-2-oxabicyclo[3.1.0]hexane-4,6-dicarboxylic acid]
Various mGlu receptors
  Ki: 0.0027 to 100 µM

## NC1(C(=O)O)CC(F)C2C(C(=O)O)C21 (stereo not shown) [LY459477, 2-amino-4-fluorobicyclo[3.1.0]hexane-2,6-dicarboxylic acid]
mGlu(2) receptors
  potency for mGlu(2) receptors: 0.001 to 0.002 µM
mGlu(3) receptors
  potency for mGlu(3) receptors: 0.001 to 0.002 µM

## NC(=O)[C@@H]1CCCC[C@@H]1C(=O)Nc1ccc(Cl)c(Cl)c1 [Lu AF21934, (1S,2R)-N1-(3,4-dichlorophenyl)cyclohexane-1,2-dicarboxamide]
mGlu4
  EC50: 0.5 µM

## NC(=O)[C@H]1CCCC[C@H]1C(=O)Nc1ccc(Cl)c(Cl)c1 [Lu AF21935, (1R,2S)-N1-(3,4-dichlorophenyl)cyclohexane-1,2-dicarboxamide]
mGlu4
  EC50: > 10 µM

## Nc1ccccc1NC(=O)c1ccc(CNc2nccc(-c3cccnc3)n2)cc1 [MGCD0103, N-(2-aminophenyl)-4-[[(4-pyridin-3-ylpyrimidin-2-yl)amino]methyl]benzamide]
[4]; isoform not stated
  IC50: ~0.1 µM

## Nc1ccccc1NC(=O)c1ccc(CNC(=O)OCc2cccnc2)cc1 [MS-27-275, pyridin-3-ylmethyl-N-[[4-[(2-aminophenyl)carbamoyl]phenyl]methyl]carbamate]
[4]
  IC50: 0.1 to 1 µM

## NS(=O)(=O)c1cccc2c1c([N+](=O)[O-])cc1nc(O)c(O)nc12 [NBQX, 2,3-dihydroxy-6-nitro-7-sulfamoylbenzo quinoxaline]
[6]; AMPA receptor antagonist, 10 μM
  effect on spontaneous excitatory postsynaptic current (sEPSC): blocked

## NC(=O)c1ccc(-c2nc(-c3ccc4c(c3)OCO4)c(-c3ccccn3)[nH]2)cc1 [SB 431542, 4-[4-(1,3-benzodioxol-5-yl)-5-(2-pyridinyl)-1H-imidazol-2-yl]benzamide]
[1]
  induction of Tau-EGFP expression and neuronal morphology (screen hit): induce Tau-EGFP expression and a neuronal morphology

## COc1ccc(C(=O)Nc2c(Cl)c[n+]([O-])cc2Cl)c2ccc(C(F)(F)F)nc12 [Sch-351591]
PDE4
  IC50: 0.15 µM

## Cc1cc(C)cc(C(=O)OC2CC3CCC(C2)N3C)c1 (stereo not shown) [TDMB, Tropanyl-3,5-dimethylbenzoate]
[1]
  induction of Tau-EGFP expression and neuronal morphology (screen hit): induce Tau-EGFP expression and a neuronal morphology

## NC1=N[C@H](O)[C@H]2[C@H]3O[C@]4(O)O[C@@H]([C@@H](O)[C@@]2(N1)[C@@H]4O)[C@]3(O)CO [TTX, tetrodotoxin]
[7]
  effect on trains of action potentials: abolished

## CC(/C=C/C(=O)NO)=C\[C@@H](C)C(=O)c1ccc(N(C)C)cc1 [Trichostatin A, (R,2E,4E)-6-(4-(dimethylamino)benzoyl)-N-hydroxy-4-methylhepta-2,4-dienamide]
[1]
  induction of Tau-EGFP expression and neuronal morphology (screen hit): induce Tau-EGFP expression and a neuronal morphology
[4]
  IC50: ~0.0018 µM

## C[C@@H](N)[C@H]1CC[C@H](C(=O)Nc2ccncc2)CC1 [Y27632, 4-[(1R)-1-aminoethyl]-N-pyridin-4-ylcyclohexane-1-carboxamide]
[1]
  induction of Tau-EGFP expression and neuronal morphology (screen hit): induce Tau-EGFP expression and a neuronal morphology

## COc1ccc(C2(C#N)CCC(C(=O)O)CC2)cc1OC1CCCC1 (stereo not shown) [ariflo, 4-cyano-4-(3-cyclopentyloxy-4-methoxyphenyl)cyclohexane-1-carboxylic acid]
PDE4
  IC50: ~0.15 µM

## O=C(Nc1c(Cl)cncc1Cl)c1ccc(OC(F)F)c(OCC2CC2)c1 [roflumilast, 3-(cyclopropylmethoxy)-N-(3,5-dichloropyridin-4-yl)-4-(difluoromethoxy)benzamide]
PDE4
  IC50: 0.0006 µM

## COc1ccc(C2CNC(=O)C2)cc1OC1CCCC1 (stereo not shown) [rolipram, 4-(3-cyclopentyloxy-4-methoxyphenyl)pyrrolidin-2-one]
[1]
  induction of Tau-EGFP expression and neuronal morphology (screen hit): induce Tau-EGFP expression and a neuronal morphology

## CCc1nn(C2CCCC2)c2c1CCn1c(-c3cccs3)nnc1-2 [tofimilast]
PDE4
  IC50: ~0.013 µM

## (2S,3S,4R,5R)-3,4-dihydroxy-5-[6-[(3-iodophenyl)methylamino]purin-9-yl]-N-ethyloxolane-2-carboxamide [IB-MECA]
[1]
  induction of Tau-EGFP expression and neuronal morphology (screen hit): induce Tau-EGFP expression and a neuronal morphology

## picrotoxin
[6]; GABAA receptor antagonist, 50 μM
  effect on inhibitory postsynaptic currents (sIPSCs): blocked
